The results in this text go back to patent US4612330A, “Antiinflammatory method” (Eli Lilly and Company, priority 1985, dated 1986).

For assay [1], the system named is adjuvant-induced arthritis in rats, uninjected hind paw. The experiment in a line: Developing adjuvant-induced arthritis test in rats: uninjected hind paw volume. In kind it is in vivo, male Lewis-Wistar rats. Particulars: 10 mg/kg I.P. × 29 daily doses; difference of areas under the curves of mean uninjected paw volumes, TB controls vs treated.
Another assay concerns hind paws of rats. The experiment in a line: carrageenin-induced edema test. In kind it is in vivo. Particulars: for inhibition of paw swelling: 50 mg/kg, administered prior to carrageenin, vs contralateral (control) paws; for anti-inflammatory activity (in words): carrageenin-induced edema, rats. The procedure:
It has now been discovered that Punaglandin-1 and -2 are useful in the treatment of inflammation and arthritis in mammals. […] A. Winter, Proc. Soc. Exp. Biol. Med., 111, 544 (1962). In this method, inflammation is induced by injecting carrageenin into one of the hind paws of rats. Test compounds were administered prior to the carrageenin injection to determine the percent inhibition of the subsequent inflammation, in comparison with the animals' contralateral (control) paws.
For orientation: In the carrageenan paw model, swelling and tenderness develop within hours.

SMILES strings stand for the structures.

Consider `CC/C=C\C/C=C\CC1(O)C=C(Cl)C(=O)C1C(OC(C)=O)C(OC(C)=O)C(CCCC(=O)OC)OC(C)=O` (centres unmarked) [Punaglandin-1, 5,6,7-tris(acetyloxy)-7-(4-chloro-2-hydroxy-2-[2(Z),5(Z)-octadienyl]-5-oxo-3-cyclopenten-1-yl)heptanoic acid, methyl ester], for which the “% Inhibition of Uninjected Paw Volume Inflammation, Days 16 through 30” value in assay [1] is listed as 56.7%. The “inhibition of paw swelling” value in the assay on hind paws of rats (intraperitoneal) was found to be 79.6%; with hind paws of rats (subcutaneous), 62.1%. Moreover, the “anti-inflammatory activity (in words)” value in the assay on hind paws of rats is listed as “anti-inflammatory activity”.
On to `CCCCC/C=C\CC1(O)C=C(Cl)C(=O)C1C(OC(C)=O)C(OC(C)=O)C(CCCC(=O)OC)OC(C)=O` (centres unmarked) [Punaglandin-2, 5,6,7-tris(acetyloxy)-7-(4-chloro-2-hydroxy-2-[2-(Z)-octenyl]-5-oxo-3-cyclopenten-1-yl)heptanoic acid, methyl ester], for which the “anti-inflammatory activity (in words)” value with hind paws of rats is “anti-inflammatory activity”.
